The target in assay [1] is purified Human plasma kallikrein (Homo sapiens (Human), UniProt P03952). Description: Kallikrein Assay. It is filed as biochemical. The procedure:
(§1) The effectiveness of a compound of the present invention as an inhibitor of Kallikrein can be determined using a relevant purified serine protease, and an appropriate synthetic substrate. The rate of hydrolysis of the chromogenic or fluorogenic substrate by the relevant serine protease was measured both in the absence and presence of compounds of the present invention. Assays were conducted at room temperature or at 37° C. […] A decrease in the rate of fluorescence change in the presence of inhibitor is indicative of enzyme inhibition. Such methods are known to one skilled in the art. The results of this assay are expressed as the inhibitory constant, Ki.
Kallikrein determinations were made in 50 mM HEPES buffer at pH 7.4 containing 150 mM NaCl, 5 mM CaCl2, and 0.1% PEG 8000 (polyethylene glycol; Fisher Scientific). Determinations were made using purified Human plasma kallikrein at a final concentration of 0.5 nM (Enzyme Research Laboratories) and the synthetic substrate, Acetyl-K-P-R-AFC (Sigma # C6608) at a concentration of […].
Times required to achieve equilibration between enzyme and inhibitor were determined in control experiments. The reactions were performed under linear progress curve conditions and fluorescence increase measured at 405 Ex/510 Em nm. […] IC50 was determined by inflection point from a four parameter logistic curve fit. Ki was calculated using the Cheng Prusoff equation, Ki=IC50/(1+([S]/Km)).

Assay [2] has as its target purified human Factor XIa (Homo sapiens (Human), UniProt P03951). Briefly: Factor XIa Assay. The assay is classed as biochemical. The procedure:
as §1, with “Coagulation Factor XIa” for “Kallikrein”, “The results of this assay are expressed as the inhibitory constant, Ki.” left out
Factor XIa determinations were made in 50 mM HEPES buffer at pH 7.4 containing 150 mM NaCl, 5 mM CaCl2, and 0.1% PEG 8000 (polyethylene glycol; JT Baker or Fisher Scientific). Determinations were made using purified human Factor XIa at a final concentration of 40 pM (Sekisui Diagnostics) and the synthetic substrate, Z-Gly-Pro-Arg-AFC, TFA salt (Sigma #C0980) at a concentration of 100 μM.
Times required to achieve equilibration between enzyme and inhibitor were determined in control experiments. Initial velocities of product formation in the absence (Vo) or presence of inhibitor (Vi) were measured. Assuming competitive inhibition, and that unity is negligible compared Km/[S], [I]/e, and [I]/e (where [S], [I], and e respectively represent the total concentrations, of substrate, inhibitor and enzyme), the equilibrium constant (Ki) for dissociation of the inhibitor from the enzyme can be obtained from the dependence of Vo/Vi on [I] shown in the following equation.

The mark [3] stands for this setting: Plasma kallikrein, substrate Acetyl-K-P-R-AFC, 0.5 nM enzyme, pH 7.4, read-out: PK IC50.
[4] abbreviates: substrate Z-Gly-Pro-Arg-AFC 100 μM, 40 pM enzyme, pH 7.4, read-out: FXIa IC50.

The structures appear in SMILES notation. Read-outs that look alike come from different tables or passages of the source.

Sequence of purified human Factor XIa (P03951 388-625): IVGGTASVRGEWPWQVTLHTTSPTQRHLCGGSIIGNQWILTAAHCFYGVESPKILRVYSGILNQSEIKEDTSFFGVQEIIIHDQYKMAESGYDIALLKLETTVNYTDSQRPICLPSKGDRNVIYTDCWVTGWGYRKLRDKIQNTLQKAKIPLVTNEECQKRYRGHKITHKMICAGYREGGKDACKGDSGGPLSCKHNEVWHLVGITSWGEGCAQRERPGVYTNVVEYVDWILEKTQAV
Sequence of purified human Factor XIa (P03951 19-387 partner): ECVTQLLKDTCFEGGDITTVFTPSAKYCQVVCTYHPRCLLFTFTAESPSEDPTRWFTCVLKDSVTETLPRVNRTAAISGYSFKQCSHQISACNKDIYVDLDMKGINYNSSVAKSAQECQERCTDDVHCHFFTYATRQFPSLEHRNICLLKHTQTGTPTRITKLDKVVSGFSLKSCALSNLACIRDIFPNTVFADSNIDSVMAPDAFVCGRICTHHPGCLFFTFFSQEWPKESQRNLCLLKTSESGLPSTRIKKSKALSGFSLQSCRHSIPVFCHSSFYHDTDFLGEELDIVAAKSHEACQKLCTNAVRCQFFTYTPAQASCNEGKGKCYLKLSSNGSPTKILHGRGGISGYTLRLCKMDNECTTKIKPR
Sequence of purified Human plasma kallikrein (P03952 391-638): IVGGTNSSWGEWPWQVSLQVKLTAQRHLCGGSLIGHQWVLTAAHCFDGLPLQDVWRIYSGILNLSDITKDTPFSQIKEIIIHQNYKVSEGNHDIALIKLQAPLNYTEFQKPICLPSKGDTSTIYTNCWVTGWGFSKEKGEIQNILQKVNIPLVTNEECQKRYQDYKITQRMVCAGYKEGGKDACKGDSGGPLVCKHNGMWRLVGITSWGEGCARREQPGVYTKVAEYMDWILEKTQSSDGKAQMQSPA
Sequence of purified Human plasma kallikrein (P03952 20-390 partner): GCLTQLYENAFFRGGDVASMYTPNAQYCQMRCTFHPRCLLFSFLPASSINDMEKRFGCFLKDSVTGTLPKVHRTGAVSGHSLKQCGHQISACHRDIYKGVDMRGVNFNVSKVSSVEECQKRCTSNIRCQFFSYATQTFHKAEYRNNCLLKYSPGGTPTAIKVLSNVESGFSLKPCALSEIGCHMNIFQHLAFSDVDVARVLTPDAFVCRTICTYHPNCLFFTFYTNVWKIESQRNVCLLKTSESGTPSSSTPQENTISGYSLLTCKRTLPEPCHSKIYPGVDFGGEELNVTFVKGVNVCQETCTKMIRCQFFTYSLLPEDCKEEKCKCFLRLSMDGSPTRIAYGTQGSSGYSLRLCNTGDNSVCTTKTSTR

For the compound `O=C(C1CC1(F)F)N1CCC(c2cccc([C@H](Cc3ccccc3)c3ccc(-c4cc(Cl)ccc4-n4cnnn4)c[n+]3[O-])c2)CC1` (stereo partly drawn) [Example 30, 5-[5-chloro-2-(1H-tetrazol-1-yl)phenyl]-2-[(1S)-1-(3-{1-[(2,2-difluoro-cyclopropyl)carbonyl]piperidin-4-yl}phenyl)-2-phenylethyl] pyridine 1-oxide], the IC50 in assay [1] (setting [3]) amounted to 820 nM; in assay [2] (setting [4]), 28.6 nM.

Take `O=C(CF)N1CCC(c2cccc([C@H](Cc3ccccc3)c3ccc(-c4cc(Cl)ccc4-n4cnnn4)c[n+]3[O-])c2)CC1` [Example 38, 5-[5-chloro-2-(1H-tetrazol-1-yl)phenyl]-2-[(1S)-1-{3-[1-(fluoroacetyl)piperidin-4-yl]phenyl}-2-phenylethyl] pyridine 1-oxide]: the figures for the IC50 in assay [1] and in assay [2] were 322 nM and 10.9 nM, respectively.

Turning to `COCCNC(=O)N1CCC(c2cccc([C@H](Cc3ccccc3)c3ccc(-c4cc(Cl)ccc4-n4cnnn4)c[n+]3[O-])c2)CC1` [Example 48, 4-{3-[(1s)-1-{5-[5-chloro-2-(1H-tetrazol-1-yl)phenyl]-1-oxidopyridin-2-yl}-2-phenylethyl]phenyl}-N-(2-methoxyethyl) piperidine-1-carboxamide], the figures for the IC50 in assay [1] (setting [3]) and in assay [2] (setting [4]) were 325 nM and 8.71 nM, respectively.

As to `O=C(O)c1cccc(-c2cccc(C(Cc3ccccc3)c3ccc(-c4cc(Cl)ccc4-n4cnnn4)c[n+]3[O-])c2)c1` (racemic) [Example 7, 2-(1-(3′-carboxy-[1,1′-biphenyl]-3-yl)-2-phenylethyl)-5-(5-chloro-2-(1H-tetrazol-1-yl)phenyl)pyridine 1-oxide], the IC50 in assay [1] (setting [3]) was 77.7 nM; in assay [2] (setting [4]), 0.459 nM.

As for `O=C(C1COC1)N1CCC(c2cccc([C@H](Cc3ccccc3)c3ccc(-c4cc(Cl)ccc4-n4cnnn4)c[n+]3[O-])c2)CC1` [Example 40], the IC50 is 413 nM in assay [1] (setting [3]) and 11.8 nM in assay [2] (setting [4]).

For the compound `O=C(O)c1cccc(-c2cc(F)cc(C(Cc3ccccc3)c3ccc(-c4cc(Cl)ccc4-n4cnnn4)c[n+]3[O-])c2)c1` (racemic) [Example 13], the IC50 in assay [1] (setting [3]) was determined as 12 nM; in assay [2] (setting [4]), 0.343 nM.

Take `O=C(NC1CCCC1)N1CCC(c2cccc([C@H](Cc3ccccc3)c3ccc(-c4cc(Cl)ccc4-n4cnnn4)c[n+]3[O-])c2)CC1` [Example 47, 4-{3-[(1S)-1-{5-[5-chloro-2-(1H-tetrazol-1-yl)phenyl]-1-oxidopyridin-2-yl}-2-phenylethyl]phenyl}-N-cyclopentyl piperidine-1-carboxamide]: the IC50 in assay [1] (setting [3]) came to 879 nM; in assay [2] (setting [4]) it was 20.1 nM.

Take `CS(=O)(=O)c1ccc(-c2cccc([C@H](Cc3ccccc3)c3ccc(-c4cc(Cl)ccc4-n4cnnn4)c[n+]3[O-])c2)cc1` [Example 6]: the IC50 in assay [1] (setting [3]) is 1110 nM; in assay [2] (setting [4]), 31.1 nM.

Regarding `CS(=O)(=O)c1ccc(-c2cccc(C(Cc3ccccc3)c3ccc(-c4cc(Cl)ccc4-n4cnnn4)c[n+]3[O-])c2)cc1` (stereo not drawn) [Example 4], the IC50 in assay [1] (setting [3]) was 4660 nM; in assay [2] (setting [4]), 38.9 nM.

Regarding `COCCOC(=O)N1CCC(c2cccc([C@H](Cc3ccccc3)c3ccc(-c4cc(Cl)ccc4-n4cnnn4)c[n+]3[O-])c2)CC1` [Example 45, 2-methoxyethyl 4-{3-[(1S)-1-{5-[5-chloro-2-(1H-tetrazol-1-yl)phenyl]-1-1-oxidopyridin-2-yl}-2-phenylethyl]phenyl} piperidine-1-carboxylate], the IC50 in assay [1] (setting [3]) was determined as 659 nM; in assay [2] (setting [4]), 43.9 nM.

Consider `O=C(NC1CCOC1)N1CCC(c2cccc([C@H](Cc3ccccc3)c3ccc(-c4cc(Cl)ccc4-n4cnnn4)c[n+]3[O-])c2)CC1` (stereo partly drawn) [Example 49, 4-{3-[(1S)-1-{5-[5-chloro-2-(1H-tetrazol-1-yl)phenyl]-1-oxidopyridin-2-yl}-2-phenylethyl]phenyl}-N-(tetrahydrofuran-3-yl)piperidine-1-carboxamide], for which the IC50 came to 414 nM in assay [1] (setting [3]) and 6.89 nM in assay [2] (setting [4]).

For the compound `O=C(C1CCCO1)N1CCC(c2cccc([C@H](Cc3ccccc3)c3ccc(-c4cc(Cl)ccc4-n4cnnn4)c[n+]3[O-])c2)CC1` (stereo partly drawn) [Example 31, 5-[5-chloro-2-(1H-tetrazol-1-yl)phenyl]-2-[(1S)-2-phenyl-1-{3-[1-(tetrahydrofuran-2-ylcarbonyl)piperidin-4-yl]phenyl}ethyl] pyridine 1-oxide], the IC50 in assay [1] (setting [3]) worked out at 336 nM; in assay [2] (setting [4]), 10.8 nM.

In the case of `COC(=O)Nc1ccc(-c2cccc(C(Cc3ccccc3)c3ccc(-c4cc(Cl)ccc4-n4cnnn4)c[n+]3[O-])c2)cc1` (racemic) [Example 1, (±)-5-(5-Chloro-2-(1H-tetrazol-1-yl)phenyl)-2-(1-(4′-((methoxycarbonyl)amino)-[1,1′-biphenyl]-3-yl)-2-phenylethyl)pyridine 1-oxide], the IC50 was found to be 24.4 nM in assay [1] (setting [3]) and 0.634 nM in assay [2] (setting [4]).

Take `NC(=O)C(=O)N1CCC(c2cccc([C@H](Cc3ccccc3)c3ccc(-c4cc(Cl)ccc4-n4cnnn4)c[n+]3[O-])c2)CC1` [Example 39, 2-(4-{3-[(1S)-1-{5-[5-chloro-2-(1H-tetrazol-1-yl)phenyl]-1-oxidopyridin-2-yl}-2-phenylethyl]phenyl}piperidin-1-yl)-2-oxoacetamide]: the IC50 in assay [1] (setting [3]) is 113 nM; in assay [2] (setting [4]), 9.95 nM.

Turning to `COCCC(=O)N1CCC(c2cccc([C@H](Cc3ccccc3)c3ccc(-c4cc(Cl)ccc4-n4cnnn4)c[n+]3[O-])c2)CC1` [Example 33, 5-[5-chloro-2-(1H-tetrazol-1-yl)phenyl]-2-[(1S)-1-{3-[1-(3-methoxy-propanoyl)piperidin-4-yl]phenyl}-2-phenylethyl] pyridine 1-oxide], the IC50 in assay [1] (setting [3]) turned out to be 376 nM; in assay [2] (setting [4]), 11.2 nM.

On to `COC(=O)Nc1ccc(-c2cccc([C@H](Cc3ccccc3)c3ccc(-c4cc(Cl)ccc4-n4cnnn4)c[n+]3[O-])c2)cc1` [Example 3, (S)-5-(5-Chloro-2-(1H-tetrazol-1-yl)phenyl)-2-(1-(4′-((methoxycarbonyl)amino)-[1,1′-biphenyl]-3-yl)-2-phenylethyl)pyridine 1-oxide], for which the IC50 in assay [1] (setting [3]) turned out to be 34.3 nM; in assay [2] (setting [4]), 2.07 nM.

Take `O=C(O)c1cccc(-c2cccc([C@@H](Cc3ccccc3)c3ccc(-c4cc(Cl)ccc4-n4cnnn4)c[n+]3[O-])c2)c1` (stereo in doubt) [Example 8, 2-(1-(3′-carboxy-[1,1′-biphenyl]-3-yl)-2-phenylethyl)-5-(5-chloro-2-(1H-tetrazol-1-yl)phenyl)pyridine 1-oxide]: the IC50 is 6920 nM in assay [1] (setting [3]) and 41 nM in assay [2] (setting [4]).

As to `O=C(O)c1ccc(-c2cccc(C(Cc3ccccc3)c3ccc(-c4cc(Cl)ccc4-n4cnnn4)c[n+]3[O-])c2)cc1` (single isomer, unassigned) [Example 11], the IC50 stood at 276 nM in assay [1] (setting [3]) and 14 nM in assay [2] (setting [4]).

As for `O=C(C1CC1)N1CCC(c2cccc([C@H](Cc3ccccc3)c3ccc(-c4cc(Cl)ccc4-n4cnnn4)c[n+]3[O-])c2)CC1` [Example 34, 5-[5-chloro-2-(1H-tetrazol-1-yl)phenyl]-2-[(1S)-1-{3-[1-(cyclopropyl-carbonyl)piperidin-4-yl]phenyl}-2-phenylethyl] pyridine 1-oxide], the IC50 in assay [1] (setting [3]) worked out at 371 nM; in assay [2] (setting [4]), 10.6 nM.

Take `O=C(O)c1ccc(-c2cccc(C(Cc3ccccc3)c3ccc(-c4cc(Cl)ccc4-n4cnnn4)c[n+]3[O-])c2)cc1` (racemic) [Example 10]: the figures for the IC50 in assay [1] (setting [3]) and in assay [2] (setting [4]) were 705 nM and 19.1 nM, respectively.

`CNC(=O)N1CCC(c2cccc(C(Cc3ccccc3)c3ccc(-c4cc(Cl)ccc4-n4cnnn4)c[n+]3[O-])c2)CC1` (racemic) [Example 21, 4-[3-(1-{5-[5-chloro-2-(1H-tetrazol-1-yl)phenyl]-1-oxidopyridin-2-yl}-2-phenylethyl)phenyl]-N-methyl piperidine-1-carboxamide]: the IC50 in assay [1] (setting [3]) came to 496 nM; in assay [2] (setting [4]), 10.2 nM.

For orientation: IC50 means the concentration at which inhibition is half-maximal.

These data come from patent US9975874B2, “Factor XIa inhibitors” (Merck Sharp & Dohme Corp., priority 2014, dated 2018).
